Laboratory results taken from patent US20020111360A1, “Quinazoline formulations and therapeutic use thereof” (PARKER HUGHES INSTITUTE, priority 1999, published 2002).
Where a name gives a salt, the structure may show the parent alone.

Legend:
Type in all cases: physicochemical
[1] = Solubilization of WHI-P131 in microemulsions; conditions: microemulsion formulation vs free base in water
Description: A series of ternary phase diagrams were constructed at room temperature, and several microemulsions within the single phase microemulsion region were examined for their capacity to solubilize WHI-P131. […] In this phase diagram, it can be seen that microemulsions containing up to 30% of Captex 300 were possible. These microemulsions were transparent and tolerated dilution very well when mixed with aqueous phases. In WHI-P131-containing microemulsions, the drug was first solubilized in the microemulsions chosen from the one phase region of the phase diagram with mild heating, followed by dilution with water or buffer solution at room temperature.
The microemulsion composition ME1 depicted in Table 9 was used in pharmacokinetic studies and biological activity assays. This microemulsion was prepared by first solubilizing WHI-P131 in composition A in the ternary phase diagram, followed by a dilution with water (1:9). […] ME2 was a microemulsion composition obtained from a separate phase diagram not shown. […] These microemulsions can readily be filtered through 0.2 μm filter, and stored at room temperature.

[2] = Solubilization of WHI-P131 in water-cosolvent mixtures and micellar solutions; conditions: for Solubility: aqueous with cosolvent or surfactant or cyclodextrin
Protocol: To further determine the effect of cosolvents on the solubility behavior of WHI-P131, the solubility of WHI-P131 chloride salt was carried out in binary mixtures of water-cosolvents. Solvents including ethanol, propylene glycol, and PEGs are used in several injectable formulations, and were considered here as possible vehicles for WHI-P131. […] However, at PEG concentrations greater than 70%, there was a large difference between the solubility behavior of WHI-P131 in water-PEG300 and water-PEG200 mixtures. For PEG300, the solubility continued to increase linearly with increasing PEG concentration, whereas for PEG200, a large increase in slopes occurred near 100% PEG200. Since the solubility-PEG300 concentration curve is linear over the entire range of water-PEG300 mixtures, WHI-P131 solubilized in these mixtures at concentrations below its saturation point can be used as vehicles for this compound, since their dilution will not result in drug precipitation. […] Therefore, PEG300 is more appropriate for use as a cosolvent vehicle in the formulations of WHI-P131.
Micellar solutions containing PEGylated phosphatidylethanolamines were exceptionally effective in enhancing the solubilization of WHI-P131. […] Micellar solutions using purified soya lecithin (Phospholipon 90G) were feasible when an equal or higher amount of a nonionic surfactant (such as Cremophor EL for example) was also present. With PEGylated phospholipids, the presence of Cremophor EL was not necessary to form micellar solutions. In addition, an anionic PEGylated phosphatidylethanolamine seemed to be a better solubilizer for WHI-P131 than Phospholipon (mostly phosphotidylcholine). The enhanced solubilization observed with micellar solutions was apparently due to the charge interaction between the cationic WHI-P131 and anionic PEGylated phosphatidylethanolamine.
To determine the solubilization enhancement by different types of surfactants in a more quantitative manner, solubility-surfactant concentration curves were plotted. FIG. 2 depicts the amount of solubilized WHI-P131 chloride in a solution containing 20% of PEG300, and an increasing amount of PEG2000-DPPE. […] At low surfactant concentrations (below the CMC), the drug solubilization seems to remain unchanged, then increases linearily with surfactant concentration at higher PEG2000-DPPE concentration. […] In Table 8, the slopes of the linear portions of the plot for a series of nonionic surfactants and cosolvents were used to calculate the solubilization enhancement per unit surfactant or cosolvent concentration.
The solubilization enhancement, as represented by the amount of solubilized WHI-P131 (in milligram) per gram of surfactant, are shown in Table 8 to vary with the type of surfactants used. For the three PEGylated phosphatidylethanolamines, the solubilization enhancement depended on the hydrophobic chain length and polyoxyethylene number of the PEGylated phospholipids. […] Also shown in Table 8 for comparison purposes are the solubilization enhancements produced by the use of cosolvents.

[3] = Solubility of WHI-P131 free base and chloride salt in various liquids
Protocol: The solubility of WHI-P131 free base was measured in water, propylene glycol, polyethylene glycols (PEGs), ethanol, and triglycerides. The solubility of WHI-P131 is very poor in water. It was about 35 times more soluble in C8-C10 medium chain triglyceride (Captex 300) than in water. It was much more soluble in ethanol and hydrophilic cosolvents such as propylene glycol and PEGs.
Parallel solubility measurements were also carried out using WHI-P131 chloride salt. […] In contrast, the solubility of WHI-P131 chloride decreased drastically in all other liquids. […] This fact underscores the importance of knowing the solubility profile of both the free base and salt forms of an ionizable compound when making choices of its delivery vehicles.

| SMILES | Total solubilization enhancement [1] [fold] | Solubility ([2]; 20% PEG300 plus 3% PEG2000-DPPE micellar solution, chloride salt, 20% PEG300 plus 3% PEG2000-DPPE, read-out: Drug solubilization in cosolvent/micellar vehicle) [µg/mL] | Solubilized WHI-P131 (mg) per gram of surfactant or solvent ([2]; PEG200, Cosolvent) [mg per gram] | Solubilized WHI-P131 (mg) per gram of surfactant or solvent ([2]; PEG300, Cosolvent) [mg per gram] | Solubilized WHI-P131 (mg) per gram of surfactant or solvent ([2]; PEG400, Cosolvent) [mg per gram] | Solubilized WHI-P131 (mg) per gram of surfactant or solvent ([2]; PEG2000-PE (14:0), Micellar solution) [mg per gram] | Solubilized WHI-P131 (mg) per gram of surfactant or solvent ([2]; PEG2000-PE (16:0), Micellar solution) [mg per gram] | Solubilized WHI-P131 (mg) per gram of surfactant or solvent ([2]; PEG5000-PE (18:0), Micellar solution) [mg per gram] | Solubilized WHI-P131 (mg) per gram of surfactant or solvent ([2]; Pluronic F-68, Micellar solution) [mg per gram] | Solubility in 20% PEG300 ([2]; chloride salt, 20% PEG300, no surfactant) [µg/mL] | Total solubilization enhancement ([2]; cosolvent/micellar solution vs free base in water) [fold] | Solubility in C8-C10 medium chain triglyceride (Captex 300) relative to water ([3]; Captex 300 vs water) | Solubility ([3]; Water) | Solubility ([2]; 20% PEG300 in water, chloride salt, 20% PEG300, no surfactant, read-out: Solubility in 20% PEG300) [µg/mL] | Solubility ([3]; Captex 300) [µg/mL] | Solubility ([3]; Ethanol) [µg/mL] | Solubility ([3]; PEG200) [µg/mL] | Solubility ([3]; PEG300) [µg/mL] | Solubility ([3]; Propylene glycol) [µg/mL] | Solubility ([3]; Water, listed as WHI-P131 salt) [µg/mL] |
| --- | --- | --- | --- | --- | --- | --- | --- | --- | --- | --- | --- | --- | --- | --- | --- | --- | --- | --- | --- | --- |
| COc1cc2ncnc(Nc3ccc(O)cc3)c2cc1OC [WHI-P131, 4-(4′-Hydroxylphenyl)-amino-6,7-dimethoxyquinazoline] | 110 | 4700 | 5.3 | 5.8 | 6.2 | 76.6 | 92.0 | 37.5 | 6.1 | 2200 | 190 | about 35 times | very poor | – | – | – | – | – | – | – |
| COc1cc2ncnc(Nc3ccc(O)cc3)c2cc1OC [WHI-P131 Chloride salt, 4-(4′-Hydroxylphenyl)-amino-6,7-dimethoxyquinazoline] | – | – | – | – | – | – | – | – | – | – | – | – | 1240 ± 90 µg/mL | 2380 | 12 ± 2 | 631 ± 7 | 25120 ± 720 | 10100 ± 3600 | 1610 ± 90 | 1200 |
